Measured values as given in patent publication US20210196714A1, “COMPOSITIONS AND METHODS FOR TREATING DISORDERS CHARACTERIZED WITH ABERRANT RAS/MAPK SIGNALING” (Duke University, priority 2018, published 2021).
“Also recorded” adds a separate entry of the source.

Legend:
[1] = tested on: kmt2d CRISPR mosaic mutants (F0); assay: Jaw defects in kmt2d-CRISPR F0 mutants; type: in vivo, zebrafish; conditions: kmt2d-CRISPR F0, 100 nM, 5 dpf; listed as dmDf
Text: Prior and current genetic zebrafish models of KS focused on the newly discovered rap1a/rap1b genes. However, from the perspective of clinical utility, dmDf should be efficacious in kmt2d mutants, since loss of function mutations of the human ortholog account for as much as 75% of KS (see, Ng, S. B. et al. Nat Genet 42, 790-3 (2010); Li, Y. et al. Hum Genet 130, 715-24 (2011); Lu, J., Mo, G., Ling, Y. & Ji, L. Mol Med Rep 14, 3641-5 (2016); Miyake, N. et al. Am J Med Genet A 161a, 2234-43 (2013)). Therefore, experiments supplemented the testing tools by creating a kmt2d CRISPR/Cas9 mutant. A guide RNA targeting exon 4 of kmt2d induced efficient (˜99%) Cas9-mediated genome editing (FIG. 8). […]
(§1) For convergence and extension (CE) phenotyping, embryos were scored as described (see, Leitch, C. C. et al. Nat Genet 40, 443-8 (2008)) at the 8-10 somite stage, and images were captured using an AZ100 microscope and NIS Elements software (Nikon). […] The distance between Meckel's (MK) and ceratohyal (CH) cartilages was measured on ventral bright field images with Image J (NIH). […] Fluorescence signal on embryo heads was imaged with the Nikon AZ100 microscope and DS-Qi1MC digital camera using […] Z-stacks to generate extended depth of focus images. Cell numbers were quantified using the ImageJ ICTN plugin (NIH). […]

[2] = tested on: rap1- and kdm6a-depleted zebrafish; assay: CE defects caused by loss of rap1 and kdm6a; type: in vivo
Experimental: FIG. 4: Compound 8 ameliorates the CE and jaw defects caused by loss of rap/and kdm6a. (a) gRNA targeting both zebrafish rap1a and rap1b were injected into embryos at the 1-cell stage with Cas9 protein. Larvae were incubated with compound 8 (100 nM) at the 8-cell stage and scored for micrognathia. 5 dpf larvae were stained with Alcian blue to assess the layout of the jaw cartilage. In comparison to control embryos (top), rap1-CRISPR embryos have smaller jaws. […] (b) Quantitative measurement of the distance between MK and CH cartilages. (c) Larvae were scored for CE (n>30 for each concentration). (d) 5 dpf embryos were stained with Alcian blue to assess the layout of jaw cartilage. […] (e) Quantitative measurement of the distance between MK and CH cartilages. *p<0.05; ***p<0.001. […]
as §1

CC(C)c1nc(-c2cccc(NS(=O)(=O)c3c(F)cccc3F)c2F)c(-c2ccnc(N)n2)s1 [Compound 8, desmethyl-Dabrafenib]
jaw defects (MK-CH distance) [1]: ameliorates the jaw defects; also recorded: ameliorated significantly
CE defects [2]: ameliorates
